Like-named read-outs stand apart in the source and are kept apart here.
Assays:
[1] = Liver-to-plasma partitioning (Kp); type: in vivo, Sprague Dawley rats; details: Sprague Dawley, rat, oral, 5 days
Method: Liver samples were analyzed using the same analytical assessment procedure as the plasma dosimetry samples. Matrix blanks were analyzed with each sample set. HFPO-TeA was not detected in the blanks above the limit of quantitation (LOQ) of 1.58 µM. Statistical analysis is described in Supplementary Text S3, normalization calculations are described in Supplementary Text S5 [47], and the liver-to-plasma partitioning calculation is outlined in Supplementary Text S7 [32, 50, 51]. […]
tube, and then further crashed with 200 µL ACN. This was repeated twice more to generate a final combined supernatant volume of 600 µL. Supernatants were stored at -20 °C prior to analysis.
Samples were quantitated against matrix-matched calibration curves containing a minimum of 5 points spanning the range 0.99 – 141 ng/mg liver (wet weight, ww). For the calibration standards, commercial rat liver (BioIVT) was spiked with HFPO-TeA and PFHxDA, homogenized, and extracted using the above procedure.
Support ing Text S7: Plasma-to-Liver Partitioning Calculations
Concentrations of HFPO-TeA in liver and plasma were used to calculate experimental Kp values for both sexes across all dose levels using Equation A [3-5].

[2] = system: Sprague Dawley rats; test: Mortality in five-day oral gavage exposure; LD50 calculation (BMDS 3.3.2); details: for LD50 estimate (lower and upper 95% bounds): oral gavage, BMDS 3.3.2 multistage 3 model
Method: Male and female rats (n = 4/sex, dose, and time point) were dosed by gavage (5 mL/kg bodyweight) once daily for five days with water (vehicle control) or HFPO-TeA at eight half-log dose levels ranging from 0.3 to 335.2 mg/kg/day (i.e., 0.3, 0.9, 2.3, 6.3, 17, 45.9, 124, and 335.2). The results reported here are part of a larger study, for which the main purpose was to use benchmark dose–response modeling of transcriptomic data to identify a gene set basis for the point of departure (POD).
Clinical observations were performed prior to first administration and at termination. Moribundity and mortality were assessed twice daily on weekdays and once daily on weekends. Animals found moribund were euthanized by carbon dioxide inhalation and death was confirmed by cervical dislocation.
The mortality incident data were analyzed using BMDS 3.3.2, with the dichotomous model selected as the model type. The Benchmark Response was set at 0.5 extra risk. LD50 estimates were based on the model with the lowest Akaike information criterion (AIC).

`O=C(O)C(F)(OC(F)(F)C(F)(OC(F)(F)C(F)(OC(F)(F)C(F)(F)C(F)(F)F)C(F)(F)F)C(F)(F)F)C(F)(F)F` (centres unmarked) [HFPO-TeA, perfluoro-(2,5,8-trimethyl-3,6,9-trioxadodecanoic) acid] showed a Kp at 120 h ([1]; female, 0.3 mg/kg/day, F, mean ± SD n=4, read-out: Liver Kp (liver-to-plasma ratio)) of 7.81 ± 4.68, a Kp at 120 h ([1]; female, 0.9 mg/kg/day, F, mean ± SD n=4, read-out: Liver Kp (liver-to-plasma ratio)) of 4.04 ± 1.37 and a Kp at 120 h ([1]; female, 2.3 mg/kg/day, F, mean ± SD n=4, read-out: Liver Kp (liver-to-plasma ratio)) of 1.9 ± 1.47. For the same compound, the Kp at 120 h ([1]; female, 6.3 mg/kg/day, F, mean ± SD n=4, read-out: Liver Kp (liver-to-plasma ratio)) was 1.65 ± 0.46, the Kp at 120 h ([1]; female, 17 mg/kg/day, F, mean ± SD n=4, read-out: Liver Kp (liver-to-plasma ratio)) was 0.903 ± 0.145 and the Kp at 120 h ([1]; male, 0.3 mg/kg/day, M, mean ± SD n=4, read-out: Liver Kp (liver-to-plasma ratio)) was 7.28 ± 3.71. It also gave a Kp at 120 h ([1]; male, 0.9 mg/kg/day, M, mean ± SD n=4, read-out: Liver Kp (liver-to-plasma ratio)) of 3.38 ± 1.24, a Kp at 120 h ([1]; male, 2.3 mg/kg/day, M, mean ± SD n=4, read-out: Liver Kp (liver-to-plasma ratio)) of 1.54 ± 0.91 and a Kp at 120 h ([1]; male, 6.3 mg/kg/day, M, mean ± SD n=4, read-out: Liver Kp (liver-to-plasma ratio)) of 3.41 ± 0.6. The Kp at 120 h ([1]; male, 17 mg/kg/day, M, mean ± SD n=4, likely influenced by high toxicity and stress, read-out: Liver Kp (liver-to-plasma ratio)) was 1.32 ± 0.55, the “LD50 estimate (lower and upper 95% bounds)” value ([2]; females) was 28.23 (18.69 and 41.57) mg/kg/day and the premature death ([2]; male and female rats, 45.9, 124, and 335.2 mg/kg/day dose groups) was “Premature death occurred”. The “doses at which mortality was observed” value ([2]; male and female rats, oral gavage five days) was greater than 17 mg/kg/day and the “LD50 estimate (lower and upper 95% bounds)” value ([2]; males) was 37.77 (26.09 and 59.96) mg/kg/day.

From publication PMC10747602, “Dose Response, Dosimetric, and Metabolic Evaluations of Replacement PFAS Perfluoro-(2,5,8-trimethyl-3,6,9-trioxadodecanoic) Acid (HFPO-TeA)” (Toxics, 2023)
